Patent US6777564B2, “Anthraquinone compound” (Industrial Technology Research Institute, priority 2001, dated 2004)
Converted amounts (≈) assume the structure as drawn. Read-outs that look alike come from different tables or passages of the source.

Assays:
[1] = system: ZR-75-1: human breast cell; assay: anti-cancer activity test (cytotoxicity), ZR-75-1; assay type: cell-based; conditions: ZR-75-1 cells; for IC50: Homo sapiens
[2] = system: A431: human squamous cell; assay: anti-cancer activity test (cytotoxicity), A431; assay type: cell-based; conditions: A431 cells; for IC50: Homo sapiens, A-431
[3] = system: KB: human oral epidormaid Carcinama cell; assay: anti-cancer activity test (cytotoxicity), KB; assay type: cell-based; conditions: KB cells; for IC50: Homo sapiens
Description: (§1) The compounds were further screened on 60 human cancer cell lines by Developmental Therapeutics Program Human Tumor Cell Line Screen set up by the National Cancer Institute of the U. S. A. The screening procedures are described briefly hereinafter. Cell suspensions that were diluted according to the particular cell type and the expected target cell density (5000-40,000 cells per well based on cell growth characteristics) were added by pipet (100 μL) into 96-well microtiterplates. Inoculates were allowed a preincubation period of 24 hours at 37° C. for stabilization. Dilutions at twice the intended test concentration were added in 100 μL aliquots to the microtiter plate wells at time zero. Usually, test compounds were evaluated at five 10-fold dilutions. In routine testing, the highest well concentration was 10^−4 M, but for the standard agents the highest well concentration used depended on the agent. Incubations lasted for 48 hours in 5% CO2 atmosphere and 100% humidity. The cells were assayed by using the sulforhodamine B assay. A plate reader was used to read the optical densities, and a microcomputer processed the optical densities into the special concentration parameters. The results of these tests with representative compounds of the present invention appear in Table 1 and 2

Lu1: human lung cell = assay: anti-cancer activity test (cytotoxicity), Lu1; assay type: cell-based; conditions: Lu1 cells; for IC50: Homo sapiens
Col2: human colon cell = assay: anti-cancer activity test (cytotoxicity), Col2; assay type: cell-based; conditions: Col2 cells; for IC50: Homo sapiens
HIV-1 RT(p66) = biological target: T1, HIV-1 RT(p66) (Human immunodeficiency virus type 1 group M subtype B, UniProt P04585); assay: anti-virus activity test, HIV-1 RT(p66) inhibition; assay type: biochemical; conditions: for activity inhibition (%) / inhibition at 200 µg/mL: at 200 μg/ml; for activity inhibition (%) / IC50 / inhibition at 200 µg/mL: HIV-1 RT(p66); for activity inhibition / anti-virus ability (in words): at the concentration of 200 μg/ml
T1 construct: 1-10 at 200 μg/ml to HIV-1 RT(p66)

[4] = system: HT-1088: human fibrosarcoma cell; assay: anti-cancer activity test (cytotoxicity), HT; assay type: cell-based; conditions: HT cells; for IC50: Homo sapiens
[5] = system: LNCaP: human prostate cell; assay: anti-cancer activity test (cytotoxicity), LNCaP; assay type: cell-based; conditions: LNCaP cells; for IC50: Homo sapiens
BC-1: human breast cell = assay: anti-cancer activity test (cytotoxicity), BC 1; assay type: cell-based; conditions: BC 1 cells; for IC50: Homo sapiens, BC1
U373: human glioma cell = assay: anti-cancer activity test (cytotoxicity), U373; assay type: cell-based; conditions: U373 cells; for IC50: Homo sapiens, U373 MG
[6] = system: KB-V: drug resisteant KB cell; assay: anti-cancer activity test (cytotoxicity), KB-V; assay type: cell-based, human; conditions: KB-V cells; for IC50: Homo sapiens
[7] = system: Mel2: human melanoma cell; assay: anti-cancer activity test (cytotoxicity), Mel2; assay type: cell-based; conditions: Mel2 cells; for IC50: Homo sapiens
[8] = system: P-388: mouse lymphaid Macrophage cell; assay: anti-cancer activity test (cytotoxicity), P-388; assay type: cell-based; conditions: P-388 cells; for IC50: Mus musculus, P388
human cancer cell lines = assay: anti-cancer activity test, overall over the cell line panel; assay type: cell-based; conditions: summary of Table 1
Description: as §1

[9] = read-out: IC50 (μg/ml) (converted)

Compound | IC50 ZR-75-1 [1] [µg/mL] | IC50 A431 [2] [µg/mL] | IC50 KB [3] [µg/mL] | IC50 Lu1 (Lu1: human lung cell) [µg/mL] | IC50 Col2 (Col2: human colon cell) [µg/mL] | activity inhibition (%) (HIV-1 RT(p66)) | activity inhibition / anti-virus ability (in words) (HIV-1 RT(p66)) | IC50 HT [4] [µg/mL] | IC50 LNCaP [5] [µg/mL] | IC50 BC 1 (BC-1: human breast cell) [µg/mL] | IC50 U373 (U373: human glioma cell) [µg/mL] | IC50 KB-V (+VLB) ([6]; with vinblastine (+VLB)) [µg/mL] | IC50 KB-V (−VLB) ([6]; without vinblastine (−VLB)) [µg/mL] | IC50 Mel2 [7] [µg/mL] | IC50 P-388 [8] [µg/mL] | IC50 [1] [µg/mL] | IC50 [2] [µg/mL] | IC50 [3] [µg/mL] | IC50 (Lu1: human lung cell) [µg/mL] | cytotoxic activity to cancer cell lines (in words) (human cancer cell lines) | further results
1-benzyl carbamidoacetamidoanthraquinone [Example 1] | >20 | >20 | >20 | >20 | >20 | 47.0 | anti-virus ability but not so strong as the others | 13.9 | 14.7 | >20 | >20 | 3.8 | >20 | >20 | >5 | – | – | – | – | – | –
2-Benzyl Carbamidoacetamidoanthraquinone [Example 9] | 6.4 | 1.7 | 19.2 | 9.6 | 9.6 | 53.4 | anti-virus ability but not so strong as the others | 8.3 | >20 | 6.4 | 4.7 | 1.4 | >20 | 15.1 | >5 | – | – | – | – | – | –
4-amino-1-benzyl Carbamidoacetamidoanthraquinone [Example 5] | >20 | >20 | >20 | >20 | >20 | 23.0 | anti-virus ability but not so strong as the others | >20 | >20 | >20 | >20 | 2.9 | >20 | >20 | >5 | – | – | – | – | – | –
N=C(N)NCC(=O)Nc1ccc(N)c2c1C(=O)c1ccccc1C2=O [Example 2, 4-amino-1-guanido acetamidoanthraquinone] | – | – | – | – | – | – | excellent effect on activity inhibition | – | – | – | – | – | – | – | – | 3.4 (≈ 10.1 µM) | 0.4 (≈ 1.19 µM) | 1.2 (≈ 3.56 µM) | 3.1 (≈ 9.19 µM) | more effective to most cancer cell lines | IC50 (Col2: human colon cell): 4.2 µg/mL (≈ 12.5 µM); IC50 (HIV-1 RT(p66); [9]): 25.8 µM; inhibition at 200 µg/mL (HIV-1 RT(p66)): 99.5%; IC50 [4]: 2 µg/mL (≈ 5.93 µM); IC50 [5]: 4.1 µg/mL (≈ 12.2 µM); IC50 (BC-1: human breast cell): 1.6 µg/mL (≈ 4.74 µM); IC50 (U373: human glioma cell): 0.6 µg/mL (≈ 1.78 µM); IC50 ([6]; with vinblastine (+VLB)): 16 µg/mL (≈ 47.4 µM); IC50 ([6]; without vinblastine (−VLB)): > 20 µg/mL; IC50 [7]: 4.4 µg/mL (≈ 13 µM); IC50 [8]: > 5 µg/mL
N=C(N)NCC(=O)Nc1cccc2c1C(=O)c1cccc(N)c1C2=O [Example 3, 5-amino-1-guanido acetamidoanthraquinone] | – | – | – | – | – | – | excellent effect on activity inhibition | – | – | – | – | – | – | – | – | 1.7 (≈ 5.04 µM) | 0.2 (≈ 0.593 µM) | 4.2 (≈ 12.5 µM) | 9.3 (≈ 27.6 µM) | more effective to most cancer cell lines | IC50 (Col2: human colon cell): 4.7 µg/mL (≈ 13.9 µM); IC50 (HIV-1 RT(p66); [9]): 20.5 µM; inhibition at 200 µg/mL (HIV-1 RT(p66)): 99.6%; IC50 [4]: 2.5 µg/mL (≈ 7.41 µM); IC50 [5]: 9 µg/mL (≈ 26.7 µM); IC50 (BC-1: human breast cell): 3 µg/mL (≈ 8.89 µM); IC50 (U373: human glioma cell): 1 µg/mL (≈ 2.96 µM); IC50 ([6]; with vinblastine (+VLB)): 13.2 µg/mL (≈ 39.1 µM); IC50 ([6]; without vinblastine (−VLB)): > 20 µg/mL; IC50 [7]: 12 µg/mL (≈ 35.6 µM); IC50 [8]: > 5 µg/mL
N=C(N)NCC(=O)Nc1ccc2c(c1)C(=O)c1ccccc1C2=O [Example 4, 2-guanidinoacetamido anthraquinone] | 3.6 (≈ 11.2 µM) | 0.8 (≈ 2.48 µM) | 2.9 (≈ 9 µM) | 14.1 (≈ 43.7 µM) | 12.1 (≈ 37.5 µM) | 99.4 | excellent effect on activity inhibition | 2.1 (≈ 6.52 µM) | 12.5 (≈ 38.8 µM) | 4.9 (≈ 15.2 µM) | 0.88 (≈ 2.73 µM) | 7.5 (≈ 23.3 µM) | >20 | 9.8 (≈ 30.4 µM) | >5 | – | – | – | – | more effective to most cancer cell lines | IC50 (HIV-1 RT(p66)): 18.9 µg/mL
N=C(N)NCC(=O)Nc1ccc2c(c1N)C(=O)c1ccccc1C2=O [Example 6, 1-amino-2-guanido acetamidoanthraquinone] | – | – | – | – | – | – | excellent effect on activity inhibition | – | – | – | – | – | – | – | – | 6.9 (≈ 20.5 µM) | 0.9 (≈ 2.67 µM) | 5.9 (≈ 17.5 µM) | > 20 | more effective to most cancer cell lines | IC50 (Col2: human colon cell): > 20 µg/mL; IC50 (HIV-1 RT(p66); [9]): 119 µM; inhibition at 200 µg/mL (HIV-1 RT(p66)): 99.7%; IC50 [4]: 4.5 µg/mL (≈ 13.3 µM); IC50 [5]: > 20 µg/mL; IC50 (BC-1: human breast cell): 7.8 µg/mL (≈ 23.1 µM); IC50 (U373: human glioma cell): 2 µg/mL (≈ 5.93 µM); IC50 ([6]; with vinblastine (+VLB)): 7.9 µg/mL (≈ 23.4 µM); IC50 ([6]; without vinblastine (−VLB)): > 20 µg/mL; IC50 [7]: > 20 µg/mL; IC50 [8]: > 5 µg/mL
N=C(N)NCC(=O)Nc1ccc2c(c1)C(=O)c1ccc(N)cc1C2=O [Example 7, 6-amino-2-guanidoacetamidoanthraquinone] | – | – | – | – | – | – | excellent effect on activity inhibition | – | – | – | – | – | – | – | – | 3.3 (≈ 9.78 µM) | 0.6 (≈ 1.78 µM) | 1.2 (≈ 3.56 µM) | > 20 | more effective to most cancer cell lines | IC50 (Col2: human colon cell): 3.2 µg/mL (≈ 9.49 µM); IC50 (HIV-1 RT(p66); [9]): 37.1 µM; inhibition at 200 µg/mL (HIV-1 RT(p66)): 99.7%; IC50 [4]: 1.6 µg/mL (≈ 4.74 µM); IC50 [5]: 6.3 µg/mL (≈ 18.7 µM); IC50 (BC-1: human breast cell): 3.6 µg/mL (≈ 10.7 µM); IC50 (U373: human glioma cell): 0.4 µg/mL (≈ 1.19 µM); IC50 ([6]; with vinblastine (+VLB)): > 20 µg/mL; IC50 ([6]; without vinblastine (−VLB)): > 20 µg/mL; IC50 [7]: 6.8 µg/mL (≈ 20.2 µM); IC50 [8]: 1.1 µg/mL (≈ 3.26 µM)
